Measured values as given in ChEMBL document CHEMBL1129390, “Synthesis and solution conformation of cyclo[RGDRGD]: a cyclic peptide with selectivity for the alpha V beta 3 receptor” (J Med Chem, 1996).
Square brackets hold non-standard residues; d marks the D form. Peptide text beside a SMILES is read from it. NMeR = CN[C@@H](CCCNC(=N)N)C(=O)O; 3Amb = NCc1cccc(C(=O)O)c1; dAbu = CC[C@@H](N)C(=O)O

target: Integrin alpha-V/beta-3 (Homo sapiens, UniProt P05106+P06756); assay: Inhibition of alphaV-beta3 interaction with vitronectin; format: protein-complex assay
Sequence (P05106 27-788 limits assumed): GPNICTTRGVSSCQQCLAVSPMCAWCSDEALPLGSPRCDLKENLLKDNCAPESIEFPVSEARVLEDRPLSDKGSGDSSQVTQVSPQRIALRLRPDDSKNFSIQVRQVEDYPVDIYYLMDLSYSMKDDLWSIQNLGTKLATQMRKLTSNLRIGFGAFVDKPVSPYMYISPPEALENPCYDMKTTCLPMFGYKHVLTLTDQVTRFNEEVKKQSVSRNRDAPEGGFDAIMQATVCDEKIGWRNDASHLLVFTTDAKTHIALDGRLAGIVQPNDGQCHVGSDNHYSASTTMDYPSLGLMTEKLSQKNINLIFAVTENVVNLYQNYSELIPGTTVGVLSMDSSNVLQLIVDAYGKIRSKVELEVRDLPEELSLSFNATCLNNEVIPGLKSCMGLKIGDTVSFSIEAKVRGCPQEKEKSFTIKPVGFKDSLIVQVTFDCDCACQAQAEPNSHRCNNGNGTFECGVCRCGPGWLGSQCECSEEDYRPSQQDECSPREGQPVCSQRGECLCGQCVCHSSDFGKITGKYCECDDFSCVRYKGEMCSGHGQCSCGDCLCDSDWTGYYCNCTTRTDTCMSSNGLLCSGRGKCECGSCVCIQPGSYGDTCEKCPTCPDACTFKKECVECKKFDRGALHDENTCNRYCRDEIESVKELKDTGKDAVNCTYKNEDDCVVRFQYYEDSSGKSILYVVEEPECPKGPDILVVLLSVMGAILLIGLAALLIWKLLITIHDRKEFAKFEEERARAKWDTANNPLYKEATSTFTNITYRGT
Sequence (P06756 31-889 limits assumed): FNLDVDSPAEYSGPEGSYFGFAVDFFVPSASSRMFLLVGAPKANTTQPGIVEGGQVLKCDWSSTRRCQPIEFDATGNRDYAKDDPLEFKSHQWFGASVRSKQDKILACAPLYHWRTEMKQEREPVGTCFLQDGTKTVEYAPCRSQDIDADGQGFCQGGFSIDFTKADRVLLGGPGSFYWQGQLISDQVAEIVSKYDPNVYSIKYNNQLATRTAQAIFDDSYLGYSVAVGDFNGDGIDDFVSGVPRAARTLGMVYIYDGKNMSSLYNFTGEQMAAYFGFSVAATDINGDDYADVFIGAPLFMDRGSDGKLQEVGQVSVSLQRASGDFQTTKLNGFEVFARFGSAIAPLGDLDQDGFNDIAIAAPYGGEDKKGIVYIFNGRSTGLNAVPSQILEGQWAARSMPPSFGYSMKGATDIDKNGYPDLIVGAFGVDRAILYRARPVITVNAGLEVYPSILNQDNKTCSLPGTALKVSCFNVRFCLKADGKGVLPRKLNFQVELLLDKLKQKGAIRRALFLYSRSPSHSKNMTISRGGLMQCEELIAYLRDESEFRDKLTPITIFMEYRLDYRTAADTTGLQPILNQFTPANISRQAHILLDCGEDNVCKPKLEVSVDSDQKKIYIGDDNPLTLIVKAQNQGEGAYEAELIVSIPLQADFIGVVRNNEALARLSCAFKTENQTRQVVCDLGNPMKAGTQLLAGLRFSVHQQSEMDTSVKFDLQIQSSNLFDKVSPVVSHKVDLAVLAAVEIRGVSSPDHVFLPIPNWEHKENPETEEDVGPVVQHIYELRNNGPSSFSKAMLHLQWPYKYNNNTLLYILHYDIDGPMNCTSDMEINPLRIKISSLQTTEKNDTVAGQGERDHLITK
Sequence (P06756 891-1048 limits assumed): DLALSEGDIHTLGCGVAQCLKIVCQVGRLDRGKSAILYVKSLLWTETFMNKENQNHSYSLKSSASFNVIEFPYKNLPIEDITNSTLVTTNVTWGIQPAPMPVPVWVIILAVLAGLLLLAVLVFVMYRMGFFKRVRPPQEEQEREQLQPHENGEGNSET

IC50 [nM]	SMILES
140	N=C(N)NCCC[C@@H]1NC(=O)[C@H](CC(=O)O)NC(=O)CNC(=O)[C@H](CCCNC(=N)N)NC(=O)[C@H](CC(=O)O)NC(=O)CNC1=O
> 10000	CC[C@H]1NC(=O)c2cccc(c2)CNC(=O)[C@H](CC(=O)O)NC(=O)CNC(=O)[C@H](CCCN=C(N)N)N(C)C1=O (cyclo([NMeR]GD[3Amb][dAbu]))
70	NC(N)=NCCC[C@H](NC(=O)[C@H](CC(=O)O)NC(=O)CNC(=O)[C@@H](N)CCCN=C(N)N)C(=O)NCC(=O)N[C@@H](CC(=O)O)C(=O)O (H-RGDRGD-OH)
320	N=C(N)NCCC[C@@H]1NC(=O)[C@H](CC(=O)O)NC(=O)CNC(=O)[C@H](CCCNC(=N)N)NC(=O)[C@@H](CC(=O)O)NC(=O)CNC1=O
